Source: ChEMBL document CHEMBL2057131, “Novel steroid inhibitors of glucose 6-phosphate dehydrogenase” (J Med Chem, 2012)
Values after ≈ are worked out from the molar mass of the structure shown.

How the values were obtained:
[1] = molecular target: T1, Glucose-6-phosphate 1-dehydrogenase (Homo sapiens, UniProt P11413); assay: Inhibition of human recombinant N-terminal His tagged G6PD expressed in Escherichia coli JM109 (DE3) cells assessed as production of NADPH after 30 mins by Amplite fluorimetric assay
T1 sequence (P11413 whole entry): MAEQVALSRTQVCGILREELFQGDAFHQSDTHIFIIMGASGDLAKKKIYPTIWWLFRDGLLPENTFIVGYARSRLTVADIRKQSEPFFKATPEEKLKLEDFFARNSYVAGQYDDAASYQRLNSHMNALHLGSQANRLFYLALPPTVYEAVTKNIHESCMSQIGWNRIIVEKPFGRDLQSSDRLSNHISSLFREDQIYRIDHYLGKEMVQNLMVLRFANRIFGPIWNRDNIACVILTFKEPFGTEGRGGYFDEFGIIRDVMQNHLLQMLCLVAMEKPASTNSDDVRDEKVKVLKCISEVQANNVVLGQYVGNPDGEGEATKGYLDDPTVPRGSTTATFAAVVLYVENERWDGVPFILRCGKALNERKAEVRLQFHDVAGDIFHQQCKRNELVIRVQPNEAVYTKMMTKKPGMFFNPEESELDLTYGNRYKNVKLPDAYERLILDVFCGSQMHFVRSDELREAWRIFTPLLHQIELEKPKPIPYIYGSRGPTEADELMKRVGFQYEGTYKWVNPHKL

[2] = molecular target: T1, Glucose-6-phosphate 1-dehydrogenase; assay: Inhibition of G6PD in HEK293T cells assessed as accumulation of 6-phosphogluconate after 5 hrs by LC-MS/MS analysis using 6-aminonicotinamide; assay type: cell-based, HEK-293T
[3] = molecular target: T1, Glucose-6-phosphate 1-dehydrogenase; assay: Ratio of IC50 for G6PD in HEK293T cells to IC50 for human recombinant G6PD expressed in Escherichia coli JM109 (DE3) cells; conditions: HEK-293T
[4] = Aqueous solubility of the compound in phosphate buffer by turbidimetric method; assay type: physicochemical
[5] = Permeability of the compound from apical to basolateral side of human Caco2 cells; assay type: ADME, cell-based; conditions: Caco-2, read-out: permeability
[6] = Efflux ratio of permeability of the compound from basolateral to apical side over apical to basolateral side of human Caco2 cells; assay type: ADME, cell-based; conditions: Caco-2
[7] = Half life in human liver microsomes; assay type: ADME, Microsome
in vitro = conditions: human, liver microsomes

SMILES | IC50 [1] | further results
C[C@]12CC[C@H](O)C[C@@H]1CC[C@@H]1[C@@H]2CC[C@]2(C)C(=O)[C@H](Br)C[C@@H]12 [16.ALPHA.-BROMOEPIANDROSTERONE] | 20.8 µM | –
CNC(=O)N[C@H]1CC[C@@]2(C)[C@@H](CC[C@@H]3[C@@H]2CC[C@]2(C)C(=O)CC[C@@H]32)C1 | 12.2 µM | –
CC(=O)[C@H]1CC[C@H]2[C@@H]3CC[C@H]4C[C@@H](NS(=O)(=O)N(C)C)CC[C@]4(C)[C@H]3CC[C@]12C | 37.8 µM | –
C[C@]12CC[C@H](O)CC1=CC[C@@H]1[C@@H]2CC[C@@]2(C)[C@H]1CC[C@@]21CCO1 | > 200 µM | –
CN(C)C(=O)N[C@H]1CC[C@@]2(C)[C@@H](CC[C@@H]3[C@@H]2CC[C@]2(C)C(=O)CC[C@@H]32)C1 | > 200 µM | –
COC(=O)N[C@H]1CC[C@@]2(C)[C@@H](CC[C@@H]3[C@@H]2CC[C@]2(C)[C@@H](C(C)=O)CC[C@@H]32)C1 | > 200 µM | –
C[C@]12CC[C@H](NS(C)(=O)=O)C[C@@H]1CC[C@@H]1[C@@H]2CC[C@]2(C)[C@@H](C(=O)CO)CC[C@@H]12 | 3.8 µM | IC50 [2]: 35.2 µM; Ratio IC50 [3]: 9.2; solubility kinetic [4]: 10 µM (≈ 4.12 µg/mL); Papp A→B [5]: 17.4 ×10⁻⁶ cm/s; efflux ratio [6]: 0.3
CC(=O)[C@H]1CC[C@H]2[C@@H]3CC[C@H]4C[C@@H](NC(=O)N(C)C)CC[C@]4(C)[C@H]3CC[C@]12C | > 200 µM | –
C[C@]12CCCC[C@@H]1CC[C@@H]1[C@@H]2CC[C@]2(C)C(=O)CC[C@@H]12 | > 200 µM | –
CC(=O)[C@H]1CC[C@H]2[C@@H]3CC[C@H]4C[C@@H](NS(N)(=O)=O)CC[C@]4(C)[C@H]3CC[C@]12C | 2 µM | IC50 [2]: 9.2 µM; Ratio IC50 [3]: 4.6; solubility kinetic [4]: 10 µM (≈ 3.97 µg/mL); Papp A→B [5]: 2.1 ×10⁻⁶ cm/s; efflux ratio [6]: 0.53
C[C@]12CC[C@H](N)C[C@@H]1CC[C@@H]1[C@@H]2CC[C@]2(C)C(=O)CC[C@@H]12 | > 200 µM | –
CCNC(=O)NC1CC[C@@]2(C)[C@@H](CC[C@@H]3[C@@H]2CC[C@]2(C)[C@@H](C(=O)CO)CC[C@@H]32)C1 (some centres not stated) | 34.9 µM | –
CCCCNC(=O)N[C@H]1CC[C@@]2(C)[C@@H](CC[C@@H]3[C@@H]2CC[C@]2(C)C(=O)CC[C@@H]32)C1 | 1.7 µM | –
COC(=O)N[C@H]1CC[C@@]2(C)[C@@H](CC[C@@H]3[C@@H]2CC[C@]2(C)[C@@H](C(=O)CO)CC[C@@H]32)C1 | 41.6 µM | –
C[C@]12CC[C@H](O)C[C@@H]1CC[C@@H]1[C@@H]2CC[C@]2(C)[C@@H](C(=O)CCl)CC[C@@H]12 | 9.3 µM | –
CC(=O)[C@H]1CC[C@H]2[C@@H]3CC[C@H]4C[C@@H](NS(=O)(=O)c5ccccc5)CC[C@]4(C)[C@H]3CC[C@]12C | 20.3 µM | –
CC(=O)OCC(=O)[C@H]1CC[C@H]2[C@@H]3CC[C@H]4C[C@@H](O)CC[C@]4(C)[C@H]3CC[C@]12C | > 200 µM | –
C[C@]12CC[C@H](NS(C)(=O)=O)C[C@@H]1CC[C@@H]1[C@@H]2CC[C@]2(C)C(=O)CC[C@@H]12 | 6.6 µM | –
CC(=O)[C@H]1CC[C@H]2[C@@H]3CC[C@H]4C[C@@H](O)CC[C@]4(C)[C@H]3C(=O)C[C@]12C | 15.8 µM | –

SMILES | IC50 [1] | further results
C[C@]12CC[C@H](O)C[C@@H]1CC[C@@H]1[C@@H]2CC[C@]2(C)C(=O)CC[C@@H]12 [EPIANDROSTERONE] | 9.4 µM | –
C[C@]12CC[C@H](O)CC1=CC[C@@H]1[C@@H]2CC[C@@]2(C)[C@H]1CC[C@@]21CO1 | > 200 µM | –
C[C@]12CC[C@@H](O)C[C@@H]1CC[C@@H]1[C@@H]2CC[C@]2(C)C(=O)CC[C@@H]12 [ANDROSTERONE] | > 200 µM | –
CC(=O)[C@H]1CC[C@H]2[C@@H]3CC[C@H]4C[C@@H](NS(C)(=O)=O)CC[C@]4(C)[C@H]3CC[C@]12C | 3.4 µM | IC50 [2]: 4.8 µM; Ratio IC50 [3]: 1.4; solubility kinetic [4]: 3 µM (≈ 1.19 µg/mL); half-life [7]: 135 min; microsomal CLint (in vitro): 10.3 µL/min/mg
CC(=O)[C@H]1CC[C@H]2[C@@H]3CC[C@H]4C[C@@H](N)CC[C@]4(C)[C@H]3CC[C@]12C | > 200 µM | –
C[C@]12CC[C@@H](NS(N)(=O)=O)C[C@@H]1CC[C@@H]1[C@@H]2CC[C@]2(C)C(=O)CC[C@@H]12 | > 200 µM | –
C[C@]12CC[C@H](O)C[C@@H]1CC[C@@H]1[C@@H]2CC[C@@]2(C)[C@H]1CC[C@@]21CO1 | > 200 µM | –
CO[C@]1(C(C)=O)CC[C@H]2[C@@H]3CC[C@H]4C[C@@H](O)CC[C@]4(C)[C@H]3CC[C@@]21C | > 200 µM | –
C[C@]12CC[C@H](NS(N)(=O)=O)C[C@@H]1CC[C@@H]1[C@@H]2CC[C@]2(C)[C@@H](C(=O)CO)CC[C@@H]12 | 1.2 µM | IC50 [2]: 14.1 µM; Ratio IC50 [3]: 11.8; solubility kinetic [4]: > 100 µM; Papp A→B [5]: 13.1 ×10⁻⁶ cm/s; efflux ratio [6]: 0.49; half-life [7]: 48.9 min; microsomal CLint (in vitro): 28.3 µL/min/mg
CC(=O)C[C@H]1CC[C@H]2[C@@H]3CC[C@H]4C[C@@H](O)CC[C@]4(C)[C@H]3CC[C@]12C | > 200 µM | –
C[C@]12CC[C@H](NS(N)(=O)=O)C[C@@H]1CC[C@@H]1[C@@H]2CC[C@]2(C)C(=O)CC[C@@H]12 | 1.2 µM | IC50 [2]: 17.4 µM; Ratio IC50 [3]: 14.5; solubility kinetic [4]: 30 µM (≈ 11.1 µg/mL); Papp A→B [5]: 31.8 ×10⁻⁶ cm/s; efflux ratio [6]: 0.66
C[C@]12CC[C@H]3[C@@H](CC=C4C[C@@H](O)CC[C@@]43C)[C@@H]1CC[C@@H]2C(=O)CO | 5.3 µM | –
C[C@]12CC[C@H](O)C[C@@H]1CC[C@@H]1[C@@H]2CC[C@@]2(C)[C@H]1CC[C@]2(O)C(=O)CO | 5.2 µM | –
CC(=O)N[C@H]1CC[C@@]2(C)[C@@H](CC[C@@H]3[C@@H]2CC[C@]2(C)[C@@H](C(C)=O)CC[C@@H]32)C1 | > 200 µM | –
CC(=O)[C@H]1CC[C@H]2[C@@H]3CC[C@H]4C[C@@H](NC(N)=O)CC[C@]4(C)[C@H]3CC[C@]12C | > 100 µM | –
C[C@]12CC[C@H](O)C[C@@H]1CC[C@H]1[C@@H]3CC[C@H](C(=O)CO)[C@@]3(C)CC(=O)[C@@H]12 | 6.3 µM | –
C[C@]12CC[C@H](NS(=O)(=O)c3ccccc3)C[C@@H]1CC[C@@H]1[C@@H]2CC[C@]2(C)C(=O)CC[C@@H]12 | 9.9 µM | –
CCNC(=O)N[C@@H]1CC[C@@]2(C)[C@@H](CC[C@@H]3[C@@H]2CC[C@]2(C)C(=O)CC[C@@H]32)C1 | > 200 µM | –
CC(=O)[C@@]12O[C@@H]1C[C@H]1[C@@H]3CC[C@H]4C[C@@H](O)CC[C@]4(C)[C@H]3CC[C@@]12C | > 200 µM | –

SMILES | IC50 [1] | further results
C/C(=N/O)[C@H]1CC[C@H]2[C@@H]3CC[C@H]4C[C@@H](O)CC[C@]4(C)[C@H]3CC[C@]12C | > 200 µM | –
CCS(=O)(=O)N[C@H]1CC[C@@]2(C)[C@@H](CC[C@@H]3[C@@H]2CC[C@]2(C)C(=O)CC[C@@H]32)C1 | 70.5 µM | –
C[C@]12CC[C@H](O)C[C@@H]1CC[C@@H]1[C@@H]2CC[C@]2(C)[C@@H](C(=O)CBr)CC[C@@H]12 | 2.5 µM | –
CCNC(=O)N[C@H]1CC[C@@]2(C)[C@@H](CC[C@@H]3[C@@H]2CC[C@]2(C)C(=O)CC[C@@H]32)C1 | 1 µM | IC50 [2]: 9.5 µM; Ratio IC50 [3]: 9.5; solubility kinetic [4]: 30 µM (≈ 10.8 µg/mL); Papp A→B [5]: 31.6 ×10⁻⁶ cm/s; efflux ratio [6]: 0.54; half-life [7]: 24.4 min; microsomal CLint (in vitro): 56.8 µL/min/mg
C[C@]12CC[C@@H](N)C[C@@H]1CC[C@@H]1[C@@H]2CC[C@]2(C)C(=O)CC[C@@H]12 | > 200 µM | –
CC(=O)[C@@]1(O)CC[C@H]2[C@@H]3CC[C@H]4C[C@@H](O)CC[C@]4(C)[C@H]3C(=O)C[C@@]21C | 47 µM | –
CC(=O)[C@H]1CC[C@H]2[C@@H]3CC[C@H]4C[C@H](O)CC[C@]4(C)[C@H]3CC[C@]12C [BREXANOLONE] | 66 µM | –
C[C@]12CC[C@H](O)CC1=CC[C@@H]1[C@@H]2CC[C@]2(C)C(=O)CC[C@@H]12 [PRASTERONE] | 11.3 µM | IC50 [2]: 24.9 µM; Ratio IC50 [3]: 2.2; solubility kinetic [4]: > 100 µM
CCS(=O)(=O)N[C@H]1CC[C@@]2(C)[C@@H](CC[C@@H]3[C@@H]2CC[C@]2(C)[C@@H](C(C)=O)CC[C@@H]32)C1 | 11 µM | –
C[C@]12CC[C@H](O)C[C@@H]1CC[C@@H]1[C@@H]2CC[C@]2(C)/C(=N/O)CC[C@@H]12 | > 200 µM | –
CC(=O)[C@H]1CC[C@H]2[C@@H]3CC[C@H]4C[C@@H](O)CC[C@]4(C)[C@H]3CC[C@]12C [SEPRANOLONE] | 4.3 µM | –
C[C@]12CC[C@H](O)C[C@@H]1CC[C@@H]1[C@@H]2CC[C@@]2(C)[C@H]1CC[C@@]21CCO1 | > 200 µM | –
C[C@]12CC[C@@H](O)C[C@@H]1CC[C@@H]1[C@@H]2CC[C@]2(C)[C@@H](C(=O)CO)CC[C@@H]12 | 31.6 µM | –
CC(=O)[C@H]1CC[C@H]2[C@@H]3CC=C4C[C@@H](O)CC[C@]4(C)[C@H]3CC[C@]12C [PREGNENOLONE] | 81.4 µM | –
C[C@]12CC[C@H](O)CC1=CC[C@@H]1[C@@H]2CC[C@]2(C)C(=O)[C@H](O)C[C@@H]12 | 15.8 µM | –
CC(=O)N[C@H]1CC[C@@]2(C)[C@@H](CC[C@@H]3[C@@H]2CC[C@]2(C)C(=O)CC[C@@H]32)C1 | 128 µM | –
COC(=O)N[C@H]1CC[C@@]2(C)[C@@H](CC[C@@H]3[C@@H]2CC[C@]2(C)C(=O)CC[C@@H]32)C1 | 1.5 µM | IC50 [2]: 7.8 µM; Ratio IC50 [3]: 5.2; solubility kinetic [4]: > 100 µM
C[C@]12CC[C@@H](NS(C)(=O)=O)C[C@@H]1CC[C@@H]1[C@@H]2CC[C@]2(C)C(=O)CC[C@@H]12 | > 200 µM | –
C[C@]12CC[C@H](NC(N)=O)C[C@@H]1CC[C@@H]1[C@@H]2CC[C@]2(C)C(=O)CC[C@@H]12 | 5 µM | –
